What was measured:
[1] = tested on: SK-OV-3; experiment: NCI-60 SRB screen; assay type: cell-based, human; details: Homo sapiens; SK-OV-3; single dose 10^−5 M; read-out: Growth inhibition (%)
[2] = tested on: OVCAR-4; experiment: NCI-60 SRB screen; assay type: cell-based, human; details: Homo sapiens; OVCAR-4; single dose 10^−5 M; read-out: Growth inhibition (%)
[3] = tested on: SK-MEL-28; experiment: NCI-60 SRB screen; assay type: cell-based; details: Homo sapiens; SK-MEL-28; single dose 10^−5 M; read-out: Growth inhibition (%)
[4] = tested on: MDA-MB-435; experiment: NCI-60 SRB screen; assay type: cell-based; details: Homo sapiens, MDA-MB-435, read-out: Growth inhibition (%)
[5] = tested on: SF-295; experiment: NCI-60 SRB screen; assay type: cell-based, human; details: Homo sapiens; SF-295; single dose 10^−5 M; read-out: Growth inhibition (%)
[6] = tested on: MOLT-4; experiment: NCI-60 SRB screen; assay type: cell-based; details: Homo sapiens; MOLT-4; single dose 10^−5 M; read-out: Growth inhibition (%)
[7] = tested on: NCI-H23; experiment: NCI-60 SRB screen; assay type: cell-based, human; details: Homo sapiens; NCI-H23; single dose 10^−5 M; read-out: Growth inhibition (%)
[8] = tested on: MALME-3M; experiment: NCI-60 SRB screen; assay type: cell-based, human; details: Homo sapiens, single dose 10^−5 M, read-out: Growth inhibition (%)
[9] = tested on: CAKI-1; experiment: NCI-60 SRB screen; assay type: cell-based, human; details: Homo sapiens; CAKI-1; single dose 10^−5 M; read-out: Growth inhibition (%)
[10] = tested on: K-562; experiment: NCI-60 SRB screen; assay type: cell-based, human; details: Homo sapiens, K562; K-562; single dose 10^−5 M; read-out: Growth inhibition (%)
[11] = tested on: SF-268; experiment: NCI-60 SRB screen; assay type: cell-based, human; details: Homo sapiens; SF-268; single dose 10^−5 M; read-out: Growth inhibition (%)
[12] = tested on: HOP-92; experiment: NCI-60 SRB screen; assay type: cell-based, human; details: Homo sapiens; HOP-92; single dose 10^−5 M; read-out: Growth inhibition (%)
[13] = tested on: SK-MEL-5; experiment: NCI-60 SRB screen; assay type: cell-based, human; details: Homo sapiens; SK-MEL-5; single dose 10^−5 M; read-out: Growth inhibition (%)
[14] = tested on: LOX IMVI; experiment: NCI-60 SRB screen; assay type: cell-based, human; details: Homo sapiens, single dose 10^−5 M, read-out: Growth inhibition (%)
[15] = tested on: NCI-H522; experiment: NCI-60 SRB screen; assay type: cell-based, human; details: Homo sapiens; NCI-H522; single dose 10^−5 M; read-out: Growth inhibition (%)
[16] = tested on: NCI-H460; experiment: NCI-60 SRB screen; assay type: cell-based, human; details: Homo sapiens; NCI-H460; single dose 10^−5 M; read-out: Growth inhibition (%)
[17] = tested on: CCRF-CEM; experiment: NCI-60 SRB screen; assay type: cell-based; details: Homo sapiens, single dose 10^−5 M, read-out: Growth inhibition (%)
[18] = tested on: HT-29; experiment: NCI-60 SRB screen; assay type: cell-based; details: Homo sapiens; HT-29; single dose 10^−5 M; read-out: Growth inhibition (%)
[19] = tested on: SK-MEL-2; experiment: NCI-60 SRB screen; assay type: cell-based, human; details: Homo sapiens; SK-MEL-2; single dose 10^−5 M; read-out: Growth inhibition (%)
[20] = tested on: SW-620; experiment: NCI-60 SRB screen; assay type: cell-based; details: Homo sapiens; SW-620; single dose 10^−5 M; read-out: Growth inhibition (%)
[21] = tested on: 786-0; experiment: NCI-60 SRB screen; assay type: cell-based; details: Homo sapiens; 786-0; single dose 10^−5 M; read-out: Growth inhibition (%)
[22] = tested on: M14; experiment: NCI-60 SRB screen; assay type: cell-based, human; details: Homo sapiens; M14; single dose 10^−5 M; read-out: Growth inhibition (%)
[23] = tested on: UO-31; experiment: NCI-60 SRB screen; assay type: cell-based, human; details: Homo sapiens; UO-31; single dose 10^−5 M; read-out: Growth inhibition (%)
[24] = tested on: SR; experiment: NCI-60 SRB screen; assay type: cell-based; details: Homo sapiens, single dose 10^−5 M, read-out: Growth inhibition (%)
[25] = tested on: COLO 205; experiment: NCI-60 SRB screen; assay type: cell-based, human; details: Homo sapiens; COLO 205; single dose 10^−5 M; read-out: Growth inhibition (%)
[26] = tested on: HCT-15; experiment: NCI-60 SRB screen; assay type: cell-based, human; details: Homo sapiens; HCT-15; single dose 10^−5 M; read-out: Growth inhibition (%)
[27] = tested on: A549/ATCC; experiment: NCI-60 SRB screen; assay type: cell-based, human; details: Homo sapiens, single dose 10^−5 M, read-out: Growth inhibition (%)
[28] = tested on: TK-10; experiment: NCI-60 SRB screen; assay type: cell-based, human; details: Homo sapiens; TK-10; single dose 10^−5 M; read-out: Growth inhibition (%)
[29] = tested on: HCC-2998; experiment: NCI-60 SRB screen; assay type: cell-based, human; details: Homo sapiens; HCC-2998; single dose 10^−5 M; read-out: Growth inhibition (%)
[30] = tested on: panel of 60 cancer cell lines; experiment: NCI-60 SRB screen, mean or range over the panel; assay type: cell-based, human; details: Homo sapiens; mean over the cell lines; single dose 10^−5 M; read-out: Mean growth inhibition (%)
[31] = tested on: IGROV1; experiment: NCI-60 SRB screen; assay type: cell-based, human; details: Homo sapiens, IGROV-1; IGROV1; single dose 10^−5 M; read-out: Growth inhibition (%)
[32] = tested on: EKVX; experiment: NCI-60 SRB screen; assay type: cell-based, human; details: Homo sapiens, single dose 10^−5 M, read-out: Growth inhibition (%)
[33] = tested on: NCI-H226; experiment: NCI-60 SRB screen; assay type: cell-based, human; details: Homo sapiens; NCI-H226; single dose 10^−5 M; read-out: Growth inhibition (%)
[34] = tested on: NCI-H322M; experiment: NCI-60 SRB screen; assay type: cell-based, human; details: Homo sapiens, single dose 10^−5 M, read-out: Growth inhibition (%)
[35] = tested on: UACC-257; experiment: NCI-60 SRB screen; assay type: cell-based, human; details: Homo sapiens, UACC-257; UACC-275 (so in the source); single dose 10^−5 M; read-out: Growth inhibition (%)
[36] = tested on: OVCAR-3; experiment: NCI-60 SRB screen; assay type: cell-based, human; details: Homo sapiens; OVCAR-3; single dose 10^−5 M; read-out: Growth inhibition (%)
[37] = tested on: UACC-62; experiment: NCI-60 SRB screen; assay type: cell-based, human; details: Homo sapiens; UACC-62; single dose 10^−5 M; read-out: Growth inhibition (%)
[38] = tested on: NCI/ADR-RES; experiment: NCI-60 SRB screen; assay type: cell-based, human; details: Homo sapiens, single dose 10^−5 M, read-out: Growth inhibition (%)
[39] = tested on: OVCAR-8; experiment: NCI-60 SRB screen; assay type: cell-based, human; details: Homo sapiens; OVCAR-8; single dose 10^−5 M; read-out: Growth inhibition (%)
[40] = tested on: SN12C; experiment: NCI-60 SRB screen; assay type: cell-based, human; details: Homo sapiens, SN12C; SN 12 C; single dose 10^−5 M; read-out: Growth inhibition (%)
[41] = tested on: HOP-62; experiment: NCI-60 SRB screen; assay type: cell-based, human; details: Homo sapiens; HOP-62; single dose 10^−5 M; read-out: Growth inhibition (%)
[42] = tested on: KM12; experiment: NCI-60 SRB screen; assay type: cell-based, human; details: Homo sapiens; KM12; single dose 10^−5 M; read-out: Growth inhibition (%)
[43] = tested on: ACHN; experiment: NCI-60 SRB screen; assay type: cell-based; details: Homo sapiens, single dose 10^−5 M, read-out: Growth inhibition (%)
[44] = tested on: HCT-116; experiment: NCI-60 SRB screen; assay type: cell-based, human; details: Homo sapiens; HCT-116; single dose 10^−5 M; read-out: Growth inhibition (%)
[45] = tested on: HL-60(TB); experiment: NCI-60 SRB screen; assay type: cell-based, human; details: Homo sapiens; HL-60 (TB); single dose 10^−5 M; read-out: Growth inhibition (%)

Work on COc1ccc(C2NC(=O)C(C#N)c3c2sc2c(F)cccc32)c(OC)c1 (stereo not drawn) [Compound 5a, 1-(2,4-Dimethoxyphenyl)-4-cyano-8-fluoro-1,2-dihydro[1]benzothieno [2,3-c]pyridin-3(4H)-one] yielded an inhibition at 10 µM [1] of 49.3%, an inhibition at 10 µM [2] of 46.3% and an inhibition at 10 µM [3] of 45.9%. The inhibition at 10 µM [4] was -129%, the inhibition at 10 µM [5] was 72.4% and the inhibition at 10 µM [6] was 28.6%. For the same molecule, the inhibition at 10 µM [7] was 35.2%, the inhibition at 10 µM [8] was 60.3% and the inhibition at 10 µM [9] was 78.7%. For the same molecule, the inhibition at 10 µM [10] was 76.1%, the inhibition at 10 µM [11] was 48.9% and the inhibition at 10 µM [12] was 57.8%. The inhibition at 10 µM [13] was 18.2%, the inhibition at 10 µM [14] was 60.3% and the inhibition at 10 µM [15] was 92%. It also gave an inhibition at 10 µM [16] of 68.2%, an inhibition at 10 µM [17] of 28.1% and an inhibition at 10 µM [18] of 36%. The inhibition at 10 µM [19] was 35.9%, the inhibition at 10 µM [20] was 68.7% and the inhibition at 10 µM [21] was 31.6%. For the same molecule, the inhibition at 10 µM [22] was 62.2%, the inhibition at 10 µM [23] was 66% and the inhibition at 10 µM [24] was 86.1%. It also gave an inhibition at 10 µM [25] of 11.7%, an inhibition at 10 µM [26] of 63.6% and an inhibition at 10 µM [27] of 41.5%. For the same molecule, the inhibition at 10 µM [28] was 1.9%, the inhibition at 10 µM [29] was 11.7% and the inhibition at 10 µM [30] was 52.5%. It also gave an inhibition at 10 µM [31] of 48.2%, an inhibition at 10 µM [32] of 20.7% and an inhibition at 10 µM [33] of 37.8%. The inhibition at 10 µM [34] was 9.6%, the inhibition at 10 µM [35] was 31.8% and the inhibition at 10 µM [36] was 86.3%. It also gave an inhibition at 10 µM [37] of 58.8%, an inhibition at 10 µM [38] of 84.4% and an inhibition at 10 µM [39] of 38.7%. The inhibition at 10 µM [40] was 26.3%, the inhibition at 10 µM [41] was 42.6% and the inhibition at 10 µM [42] was 69%. For the same molecule, the inhibition at 10 µM [43] was 62.5%, the inhibition at 10 µM [44] was 77.2% and the inhibition at 10 µM [45] was 43%.
COc1ccc(C2NC(=O)C(C#N)c3c2sc2c(F)cccc32)cc1 (stereo not drawn) [Compound 5b, 4-Cyano-8-fluoro-1-(4-methoxyphenyl)-1,2-dihydro[1]benzothieno[2,3-c] pyridin-3(4H)-one] was tested, and the inhibition at 10 µM [1] was 36.9%, the inhibition at 10 µM [2] was 28.4% and the inhibition at 10 µM [3] was 47.4%. The inhibition at 10 µM [4] was 109%, the inhibition at 10 µM [5] was 69.5% and the inhibition at 10 µM [6] was 50.9%. The inhibition at 10 µM [7] was 24.8%, the inhibition at 10 µM [8] was 52.9% and the inhibition at 10 µM [9] was 60%. The inhibition at 10 µM [10] was 86%, the inhibition at 10 µM [11] was 39% and the inhibition at 10 µM [12] was 45.9%. The inhibition at 10 µM [13] was 39.5%, the inhibition at 10 µM [14] was 54.4% and the inhibition at 10 µM [15] was 79.9%. The inhibition at 10 µM [16] was 71.4%, the inhibition at 10 µM [17] was 66% and the inhibition at 10 µM [18] was 49.5%. The inhibition at 10 µM [19] was 40%, the inhibition at 10 µM [20] was 75.7% and the inhibition at 10 µM [21] was 29.1%. It also gave an inhibition at 10 µM [22] of 66.7%, an inhibition at 10 µM [23] of 64.2% and an inhibition at 10 µM [24] of 77.9%. It also gave an inhibition at 10 µM [25] of 8.44%, an inhibition at 10 µM [26] of 66.5% and an inhibition at 10 µM [27] of 58.5%. It also gave an inhibition at 10 µM [28] of -12.7%, an inhibition at 10 µM [29] of 8.46% and an inhibition at 10 µM [30] of 52.5%. The inhibition at 10 µM [31] was 58.9%, the inhibition at 10 µM [32] was 38.3% and the inhibition at 10 µM [33] was 39.8%. For the same molecule, the inhibition at 10 µM [34] was 34.8%, the inhibition at 10 µM [35] was 36.1% and the inhibition at 10 µM [36] was 99.4%. For the same molecule, the inhibition at 10 µM [37] was 64.7%, the inhibition at 10 µM [38] was 70.7% and the inhibition at 10 µM [39] was 30.2%. For the same molecule, the inhibition at 10 µM [40] was 38.6%, the inhibition at 10 µM [41] was 54.6% and the inhibition at 10 µM [42] was 60%. The inhibition at 10 µM [43] was 55.5%, the inhibition at 10 µM [44] was 62.5% and the inhibition at 10 µM [45] was 89.5%.
